In article PMC6767236, “Selective Cannabinoid 2 Receptor Agonists as Potential Therapeutic Drugs for the Treatment of Endotoxin-Induced Uveitis” (Molecules, 2019):

How the values were obtained:
human CB2R = molecular target: T1, human CB2R (Homo sapiens, UniProt P34972); test: Radioligand binding assay, human CB2R ([3H]-CP55940)
T1 construct: bgal (beta-galactosidase fragment of the PathHunter system, named only in the cell line's name); host or cells: CHO-K1 (CHOK1hCB2_bgal)
Procedure: Membrane fractions were prepared from cultured CHOK1hCB1_bgal, CHOK1hCB2_bgal, and CHOK1mCB2_bgal cells (DiscoveRx, Fremont, CA, USA) as previously described. Protein concentration was determined using the Pierce bicinchoninic acid (BCA) protein assay (Rochford, IL, USA) as per the manufacturer’s instructions.
Radio ligand-binding assays were carried out as described by Souethoudt et al. (2018). Briefly, membranes from cells expressing human CB2R or CB1R or mouse CB2R and the radioligand, [^3H]-CP55940 (Perkin Elmer, Basel, Switzerland) was used. […] Membrane aliquots containing 5 µg (CHOK1hCB1_bgal) or 1 µg (CHOK1hCB2_bgal) of membrane protein in 100 µL assay buffer (50 mMTris-HCl, 5 mM MgCl2, 0.1% bovine serum albumin (BSA), pH 7.4) were incubated at 30 °C for 1 h, in presence of 3.5 nM of [^3H]-CP55940 (CHOK1hCB1_bgal) or 1.5 nM [^3H]-CP55940 (CHOK1hCB2_bgal). The incubation was terminated by rapid filtration performed on glass microfibre (GF/C) filters (Whatman International, Maidstone, UK), presoaked for 30 min with 0.25% polyethyleneimine (PEI), and using a Brandel harvester (Brandel, Gaithersburg, MD, USA). Filter-bound radioactivity was determined by scintillation spectrometry using a Tri-Carb 2900 TR liquid scintillation counter (Perkin Elmer, Boston, MA, USA). […] In all receptor binding experiments, nonspecific binding was determined in the presence of 1 µM “cold” agonist.

[1] = set-up: method as in earlier work; settings: * previously published; cited from earlier work
human CB1R = molecular target: T2, human CB1R (Homo sapiens, UniProt P21554); test: cAMP assay, CHO cells expressing human CB1R; format: cell-based; settings: read-out: hCB1R: cAMP EC50
T2 construct: host or cells: CHO
T2 sequence (P21554 whole entry): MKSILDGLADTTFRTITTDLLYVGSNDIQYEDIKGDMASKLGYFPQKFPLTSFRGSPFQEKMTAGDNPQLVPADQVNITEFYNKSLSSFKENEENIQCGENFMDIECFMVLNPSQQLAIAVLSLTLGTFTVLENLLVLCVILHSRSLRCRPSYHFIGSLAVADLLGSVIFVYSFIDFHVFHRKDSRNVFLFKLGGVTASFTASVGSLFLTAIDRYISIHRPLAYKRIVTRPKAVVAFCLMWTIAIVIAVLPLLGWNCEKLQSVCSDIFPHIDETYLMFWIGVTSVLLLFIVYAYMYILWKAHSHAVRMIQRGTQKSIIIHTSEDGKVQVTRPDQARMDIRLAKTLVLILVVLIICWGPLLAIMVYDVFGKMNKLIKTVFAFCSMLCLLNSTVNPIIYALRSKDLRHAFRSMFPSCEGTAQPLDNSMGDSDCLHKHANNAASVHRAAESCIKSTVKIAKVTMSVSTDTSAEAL
Procedure: The effect of ligands on the forskolin-stimulated accumulation of cAMP was determined using the LANCE ULTRA cAMP kit as per the manufacturer’s instruction (Perkin-Elmer Life Sciences, Boston, MA, USA).
For human CB2R and CB1R, cAMP assays were performed using CHO cells stably expressing human CB2R or human CB1R (DiscoveRx, Fremont, CA, USA) using a cAMP-Nano-TRF detection kit (Roche Diagnostics, Penzberg, Germany). Cells were seeded 17–24 h prior to the experiment at a density of 3 × 10^4 cells per well in a black 96-well plate with clear flat bottom (Corning, Wiesbaden, Germany) and incubated in 5% CO2 at 37 °C in a humidified incubator. The growth medium was exchanged with Krebs Ringer bicarbonate buffer with 1 mmol/L 3-isobutyl-1-methylxanthine (IBMX), 0.1% fatty acid-free BSA and incubated at 30 °C for 60 min. Agonist was added to a final assay volume of 100 μL and the mixture was incubated for 30 min at 30 °C. The assay was stopped by the addition of 50 μL 3 × lysis reagent and shaken for 2 h at room temperature. The time-resolved fluorescence energy transfer was measured using an LF502 Nanoscan FLT (IOM, Berlin, Germany), equipped with a laser as excitation source. cAMP content was determined from the function of a standard curve spanning from 10 to 0.13 nmol/L cAMP. Efficacies are expressed as percent relative to 1 µM CP55940.

[2] = system: adhesion of adoptively-transferred leukocytes in the iridial microcirculation; test: Adoptive transfer of WT leukocytes into neutrophil-depleted CB2R-/- mice with EIU; format: in vivo; settings: neutrophil-depleted CB2R-/- recipients with EIU, topical
Procedure: (§1) For adoptive transfer experiments, calcein-AM-labelled leukocytes were visualized by fluorescence (495 nm excitation) in the iridial microcirculation using a Leica DMLM epifluorescence microscope (Leica, Wetzlar, Germany) equipped with a mercury-arc light source (LEG EBQ 100, Carl Zeiss, Jena, Germany) and captured by a CCD video camera (SIT 68, DAGE MTI, Michigan, IN, USA). Videos were recorded using WinDV Capture software (Mourek, Prague, Czech Republic) and stored on an external hard drive.
(§2) During IVM animals were placed on a heating pad in a stereotactic frame, and Tear-Gel® (Novartis Pharmaceuticals Canada Inc., Dorval, QC, Canada) was applied to their cornea. The iris was divided into four equal quadrants by drawing two superficial lines on the cornea, lengthwise and widthwise. […] Two to four videos of each quadrant were recorded for 30 s each. Videos were analyzed off-line without knowledge of the treatment groups. […] Using ImageJ software (National Institute of Health, Bethesda, MD, USA) the number of adherent leukocytes within each vessel segment was calculated by measuring the diameter and length of vessel segment studied, assuming a cylindrical geometry of blood vessels. Adherent leukocytes were expressed as number of cells per mm^2 of endothelial surface. […] The number of rolling leukocytes was counted for 30 s and used to calculate the number of rolling leukocytes per min. […]

[3] = system: adhesion of adoptively-transferred leukocytes in the iridial microcirculation; test: Adoptive transfer of WT leukocytes into neutrophil-depleted WT mice with EIU; format: in vivo, mouse; settings: topical 1.5% w/v, 6 h post-EIU
Procedure: as §1, §2

pKa = format: physicochemical; settings: read-out: pKa (basic)

T1 sequence (P34972 whole entry, the tested form may be a part): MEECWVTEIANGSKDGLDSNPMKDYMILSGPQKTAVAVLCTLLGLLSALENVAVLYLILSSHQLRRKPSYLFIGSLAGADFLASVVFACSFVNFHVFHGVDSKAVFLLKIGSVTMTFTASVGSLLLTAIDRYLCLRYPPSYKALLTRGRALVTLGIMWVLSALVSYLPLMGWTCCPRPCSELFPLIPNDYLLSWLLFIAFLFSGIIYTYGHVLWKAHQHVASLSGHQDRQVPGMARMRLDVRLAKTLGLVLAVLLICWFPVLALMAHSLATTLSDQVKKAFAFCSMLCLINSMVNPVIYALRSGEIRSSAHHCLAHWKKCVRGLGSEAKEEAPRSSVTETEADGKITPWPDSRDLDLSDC

SMILES: CCCCCCC(C)(C)c1cc(OC)c(C2=C[C@H]3CC[C@]2(CO)C3(C)C)c(OC)c1 [HU910, {(1S,4R)-2-[2,6-dimethoxy-4-(2-methyloctan-2-yl)phenyl]-7,7-dimethylbicyclo[2.2.1]hept-2-en-1-yl}methanol, reference compound]
- hCB1R Ki/hCB2R Ki (human CB2R): 89
- Plasma Protein Binding: FREE Fraction mouse [1]: 4.1%

SMILES: CNC(=O)[C@@H](NC(=O)c1cc(OCC2(C)COC2)c(C2CC2)cn1)C(C)(C)C [RO6851228, 5-Cyclopropyl-N-[(2S)-3,3-dimethyl-1-(methylamino)-1-oxobutan-2-yl]-4-[(3-methyloxetan-3-yl)methoxy]pyridine-2-carboxamide]
- EC50 (human CB1R): > 10 µM

SMILES: Cc1nc([C@](C)(CC2CC2)NC(=O)c2cc(OCC(F)(F)F)c(C3CC3)cn2)no1 [RO6871085, 5-Cyclopropyl-N-[(2S)-1-cyclopropyl-2-(5-methyl-1,2,4-oxadiazol-3-yl)propan-2-yl]-4-(2,2,2-trifluoroethoxy)pyridine-2-carboxamide]
- Plasma Protein Binding: FREE Fraction mouse [1]: 0.9%

SMILES: CC(C)(C)c1nc(N2CC[C@H](O)C2)c2nnn(Cc3nnnn3C3CC3)c2n1 [RO6871304, (3S)-1-{5-tert-butyl-3-[(1-cyclopropyl-1H-tetrazol-5-yl)methyl]-3H-[1,2, 3]triazolo[4,5-d]pyrimidin-7-yl}pyrrolidin-3-ol]
- adhesion of adoptively-transferred leukocytes [2]: did not affect adhesion of adoptively-transferred leukocytes
- Ki (human CB2R; [3H]-CP55940 displacement, read-out: hCB2R: Ki): 17 nM
- decrease of LPS-induced adhesion of adoptively-transferred leukocytes compared to vehicle [3]: 64 fold
- pKa (pKa): 2.7
